Results as given in patent publication US7655799B2, “2{[2-(substituted amino)ethyl]sulfonyl}ethyl N,N,N',N'-tetrakis(2-chloroethyl)phosphorodiamidates” (Telik, Inc., priority 2006, dated 2010).

How the values were obtained:
MX-1 tumor [1] = experiment: MX-1 Xenograft Assay, Intravenous Administration; assay type: in vivo, athymic nu/nu mice; settings: hydrochloride salt in aqueous 5% dextrose
Description: (§1) Female athymic nu/nu mice (Harlan, Indianapolis, Ind., U.S.A. or similar vendor), 6-8 weeks old (approximately 20 g), were implanted in the mammary fat pad of the right fore flank with 20-30 mg pieces of MX-1 tumor harvested from similar nu/nu mice that had previously been implanted with the MX-1 tumor. […] Groups of mice were treated with compounds 2A and 3A at 50 mg/Kg and compounds 1A, 2A, 3A, and 5A at 100 mg/Kg, in all cases as the hydrochloride salts dissolved in aqueous 5% dextrose, by intraperitoneal injection once/day for 5 consecutive days, with vehicle control. Tumor mass, estimated from volume, was measured twice weekly; and tumor growth inhibition was measured when the average tumor mass in the control group first exceeded 2000 mg. All compounds were active in this assay, with tumor growth inhibition compared to vehicle of 70% and 23% for compounds 2A and 3A, respectively, at 50 mg/Kg, and 100%, 100%, 100%, and 91% for compounds 1A, 2A, 3A, and 5A, respectively, at 100 mg/Kg.
A study similar to that described in In vivo Example 1 was performed using intravenous administration of compound 2A. A group of mice was treated with the compound, as the hydrochloride salt dissolved in aqueous 5% dextrose, at 40 and 80 mg/Kg by tail vein injection once/day for 5 consecutive days, with vehicle control.

MX-1 tumor [2] = experiment: MX-1 Xenograft Assay, Intraperitoneal Administration; assay type: in vivo, athymic nu/nu mice; settings: hydrochloride salts in aqueous 5% dextrose
Description: as §1

[3] = Solubility in water of salts; settings: for solubility: water, solubility in water
[4] = test system: MIA PaCa-2 (pancreatic carcinoma); experiment: Cytotoxicity/Growth Inhibition Assay (CellTiter-Glo), MIA PaCa-2; assay type: cell-based; settings: Homo sapiens, MIA PaCa-2, 72 h; hydrochloride salts; 3 days culture
Description: (§2) The human cancer cell lines DLD-1 (colorectal adenocarcinoma), LNCaP (prostate carcinoma), and MIA PaCa-2 (pancreatic carcinoma) were obtained from the American Type Culture Collection, Manassas, Va., U.S.A., and MX-1 (breast carcinoma) from the National Cancer Institute, Bethesda, Md., U.S.A. The CellTiter-Glo assay kit was obtained from Promega Corporation, Madison, Wis., U.S.A. All products were used in accordance with manufacturer's directions. All assays were conducted in triplicate wells, with dimethyl sulfoxide (DMSO) solvent control. The extent of cell growth was expressed as a percentage of the signal from the solvent control wells.
(§3) Log-phase cells were trypsinized, collected by centrifugation, and resuspended in a small volume of fresh medium, and the density of viable cells was determined following Trypan Blue staining. Cells were diluted in fresh media (3×10^3 cells/mL for DLD-1, MIA PaCa-2, and MX-1, and 6×10^3 cells/mL for LNCaP), and added at 150 μL/well to 96-well plates, and incubated for several hours to allow attachment in the case of adherent cells. Compounds 1A to 5A, as their hydrochloride salts, dissolved in DMSO, was diluted 50-fold with fresh medium and the diluted solutions immediately added at 50 μL/well to the cell suspensions, giving final compound concentrations between 0.1 μM and 200 μM and a final DMSO concentration of 0.5%. The cells were cultured for approximately three doubling times (3 days for MIA PaCa-2 and MX-1, and 4 days for DLD-1 and LNCaP). The cells were then collected by centrifugation, and 100 μL of the culture supernatant was replaced by the CellTiter-Glo reagent. After incubation for 10 minutes at room temperature, and the plate was read with a luminometer. A number of compounds of formula A were tested in this assay and found to be active.

MIA PaCa-2 tumor = experiment: MiaPaCa-2 Xenograft Assay, Intraperitoneal Administration; assay type: in vivo, athymic nu/nu mice; settings: 100 mg/Kg intraperitoneal once/day for 7 days; for tumor growth inhibition compared to vehicle: hydrochloride salts in aqueous 5% dextrose
Description: Male athymic nu/nu mice, 6-8 weeks old (approximately 20 g), were implanted subcutaneously in the right fore flank with 20-30 mg pieces of MIA PaCa-2 tumor harvested from similar nu/nu mice that had previously been implanted with the MIA PaCa-2 tumor. […] A group of mice was treated with compounds 2A, 3A, and 5A, in all cases as the hydrochloride salts dissolved in aqueous 5% dextrose, at 100 mg/Kg by intraperitoneal injection once/day for 7 consecutive days, with vehicle control.

MX-1 tumor [5] = experiment: MX-1 Xenograft Assay, Oral Administration; assay type: in vivo, athymic nu/nu mice; settings: hydrochloride salt in water
Description: as §1
A study similar to that described in In vivo Example 1 was performed using oral administration of compounds 2A and 3A. Groups of mice were treated with compound 2A at 100, 150, 200, or 300 mg/Kg, or compound 3A at 150 mg/Kg, in each case as the hydrochloride salts dissolved in water, by gavage once/day for 5 consecutive days, with vehicle control. Both compounds were active in this assay and compound 2A caused dose-dependent tumor inhibition.

MX-1 (breast carcinoma) = experiment: Cytotoxicity/Growth Inhibition Assay (CellTiter-Glo), MX-1; assay type: cell-based; settings: Homo sapiens, 72 h; hydrochloride salts; 3 days culture
Description: as §2, §3

[6] = test system: DLD-1 (colorectal adenocarcinoma); experiment: Cytotoxicity/Growth Inhibition Assay (CellTiter-Glo), DLD-1; assay type: cell-based; settings: Homo sapiens, DLD-1, 96 h; hydrochloride salts; 4 days culture
Description: as §2, §3

[7] = test system: human cancer cell lines DLD-1, LNCaP, MIA PaCa-2, MX-1; experiment: Cytotoxicity/Growth Inhibition Assay, all cell lines, comparison with canfosfamide; assay type: cell-based; settings: all assays (DLD-1, LNCaP, MIA PaCa-2, MX-1)
Description: as §2
Log-phase cells were trypsinized, collected by centrifugation, and resuspended in a small volume of fresh medium, and the density of viable cells was determined following Trypan Blue staining. Cells were diluted in fresh media (3×10^3 cells/mL for DLD-1, MIA PaCa-2, and MX-1, and 6×10^3 cells/mL for LNCaP), and added at 150 μL/well to 96-well plates, and incubated for several hours to allow attachment in the case of adherent cells. […] After incubation for 10 minutes at room temperature, and the plate was read with a luminometer. […]

[8] = test system: LNCaP (prostate carcinoma); experiment: Cytotoxicity/Growth Inhibition Assay (CellTiter-Glo), LNCaP; assay type: cell-based; settings: Homo sapiens, 96 h, hydrochloride salts, 4 days culture
Description: as §2, §3

[9] = 50 mg/Kg intraperitoneal once/day for 5 days
[10] = 100 mg/Kg intraperitoneal once/day for 5 days

Structure (SMILES) | inhibition of tumor growth compared to vehicle (MX-1 tumor [1]; 40 mg/Kg tail vein injection once/day for 5 days) | inhibition of tumor growth compared to vehicle (MX-1 tumor [1]; 80 mg/Kg tail vein injection once/day for 5 days) | tumor growth inhibition compared to vehicle (MX-1 tumor [2]; [9]) | tumor growth inhibition compared to vehicle (MX-1 tumor [2]; [10]) | solubility in water (in words) ([3]; tartrate salt) | solubility ([3]; citrate salt) | solubility ([3]; hydrochloride salt) | IC50 [4] | body weight effect (MIA PaCa-2 tumor) | tumor growth inhibition compared to vehicle (MIA PaCa-2 tumor) | inhibition of tumor growth compared to vehicle (MX-1 tumor [5]; 100 mg/Kg by gavage once/day for 5 days) | inhibition of tumor growth compared to vehicle (MX-1 tumor [5]; 300 mg/Kg by gavage once/day for 5 days) | IC50 (MX-1 (breast carcinoma)) | IC50 [6] | potency relative to canfosfamide [7] | IC50 [8] | solubility in water (in words) ([3]; citrate salt) | solubility in water (in words) ([3]; hydrochloride salt) | inhibition of tumor growth compared to vehicle (MX-1 tumor [5]; 150 mg/Kg by gavage once/day for 5 days)
CCN(CC)CCS(=O)(=O)CCOP(=O)(N(CCCl)CCCl)N(CCCl)CCCl [Compound 2A, 2-{[2-(diethylamino)ethyl]sulfonyl}ethyl N,N,N′,N′-tetrakis(2-chloroethyl)phosphorodiamidate] | 53% | 99% | 70% | 100% | slightly more soluble than the citrate salt | ~19 mg/mL | ≥ 50 mg/mL | 16 µM | some body weight loss | 89% | 92% | 100% | 16 µM | 7.9 µM | more potent | 75 µM |  |  | 
CN(C)CCS(=O)(=O)CCOP(=O)(N(CCCl)CCCl)N(CCCl)CCCl [Compound 1A, 2-{[2-(dimethylamino)ethyl]sulfonyl}ethyl N,N,N′,N′-tetrakis(2-chloroethyl)phosphorodiamidate] |  |  |  | 100% |  |  |  | 39 µM |  |  |  |  | 43 µM | 11 µM |  | 130 µM | somewhat more soluble than the citrate salt of compound 2A | highly soluble in water | 
O=P(OCCS(=O)(=O)CCN1CCCC1)(N(CCCl)CCCl)N(CCCl)CCCl [Compound 4A, 2-{[2-(pyrrolidin-1-yl)ethyl]sulfonyl}ethyl N,N,N′,N′-tetrakis(2-chloroethyl)phosphorodiamidate] |  |  |  |  |  |  |  | 29 µM |  |  |  |  | 26 µM | 8.6 µM |  | 100 µM |  |  | 
O=P(OCCS(=O)(=O)CCN1CCCCC1)(N(CCCl)CCCl)N(CCCl)CCCl [Compound 5A, 2-{[2-(piperidin-1-yl)ethyl]sulfonyl}ethyl N,N,N′,N′-tetrakis(2-chloroethyl)phosphorodiamidate] |  |  |  | 91% |  |  |  | 36 µM | some body weight loss | 62% |  |  | 41 µM | 13 µM |  | 140 µM |  |  | 
CC(C)N(CCS(=O)(=O)CCOP(=O)(N(CCCl)CCCl)N(CCCl)CCCl)C(C)C [Compound 3A, 2-{[2-(diisopropylamino)ethyl]sulfonyl}ethyl N,N,N′,N′-tetrakis(2-chloroethyl)phosphorodiamidate] |  |  | 23% | 100% |  |  |  | 6.8 µM | some body weight loss | 89% |  |  | 5 µM | 5 µM | more potent | 16 µM |  |  | 98%
